Key:
[1] = molecular target: T1, Muscarinic acetylcholine receptor M4 (Rattus norvegicus, UniProt P08485)
T1 sequence (P08485 whole entry): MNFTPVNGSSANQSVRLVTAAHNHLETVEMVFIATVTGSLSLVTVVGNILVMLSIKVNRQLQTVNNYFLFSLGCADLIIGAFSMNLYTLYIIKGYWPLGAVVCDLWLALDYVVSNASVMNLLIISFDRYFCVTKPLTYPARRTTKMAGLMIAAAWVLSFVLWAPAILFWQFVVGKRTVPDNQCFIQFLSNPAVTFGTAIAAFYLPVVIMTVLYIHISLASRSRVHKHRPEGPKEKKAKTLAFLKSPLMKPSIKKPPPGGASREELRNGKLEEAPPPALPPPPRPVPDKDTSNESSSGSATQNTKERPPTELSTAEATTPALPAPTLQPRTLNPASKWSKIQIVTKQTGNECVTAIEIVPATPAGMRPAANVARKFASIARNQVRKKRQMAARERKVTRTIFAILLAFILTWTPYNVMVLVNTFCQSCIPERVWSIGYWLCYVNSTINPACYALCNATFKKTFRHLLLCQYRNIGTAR

[2] = molecular target: T2, Muscarinic acetylcholine receptor M1 (Rattus norvegicus, UniProt P08482)
T2 sequence (P08482 whole entry): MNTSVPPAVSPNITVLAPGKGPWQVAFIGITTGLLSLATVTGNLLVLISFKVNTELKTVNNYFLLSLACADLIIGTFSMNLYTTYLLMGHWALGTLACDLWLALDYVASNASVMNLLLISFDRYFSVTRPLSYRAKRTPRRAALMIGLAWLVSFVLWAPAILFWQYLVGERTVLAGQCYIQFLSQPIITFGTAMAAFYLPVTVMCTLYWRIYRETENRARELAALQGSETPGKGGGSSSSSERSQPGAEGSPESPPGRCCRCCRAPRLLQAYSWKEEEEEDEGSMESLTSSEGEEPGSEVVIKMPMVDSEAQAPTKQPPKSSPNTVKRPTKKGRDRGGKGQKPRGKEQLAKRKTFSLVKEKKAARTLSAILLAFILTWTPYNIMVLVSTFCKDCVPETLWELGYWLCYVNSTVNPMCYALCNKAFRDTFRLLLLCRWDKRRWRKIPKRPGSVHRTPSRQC

| Structure (SMILES) | Ki [1] | Ki [2] |
| --- | --- | --- |
| C[N+]1(C)CCC(OC(=O)C(c2ccccc2)c2ccccc2)CC1 | 1.4 nM |  |
| CCN(CC)CC1CCCCN1CC(=O)N1c2ccccc2C(=O)Nc2cccnc21 (stereo not drawn) [(AF-DX 116) 11-[2-(2-Diethylaminomethyl-piperidin-1-yl)-acetyl]-5,11-dihydro-benzo[e]pyrido[3,2-b][1,4]diazepin-6-one] | 614 nM | 1200 nM |
| O[Si](CCCN1CCCCC1)(c1ccccc1)C1CCCCC1 (stereo not drawn) [HHSiD] | 47 nM | 60 nM |
| COc1ccccc1CNCCCCCCNCCCCCCCCNCCCCCCNCc1ccccc1OC [METHOCTRAMINE] | 410 nM |  |
| CCN(CCCC(=O)C1CCCCC1)C(C)Cc1ccc(OC)cc1 (stereo not drawn) [NSC_42470] | 7.8 nM | 5.9 nM |
